Assay results: patent US20070082880A1 (priority 2005, published 2007)

Target: T1, human PKCθ full length enzyme (Homo sapiens, UniProt Q04759)
T1 construct: human PKCθ full length enzyme (Panvera Catalog No. P2996); purchased Panvera P2996
Assay: PKCθ IMAP Assay
Type: biochemical
Conditions: average value when one or more samples were tested; ATP 6 uM, PKCθ 1 nM
In short: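 Full-length human PKCθ (1 nM final) with 6 uM ATP and 100 nM 5FAM-labelled peptide, 5% DMSO, 3.0 mM DTT in reaction buffer. 25 min at room temperature; IMAP bead binding 20 min, fluorescence polarization read. Compounds 2:1 serially diluted; no-ATP and no-enzyme wells as controls.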

T1 sequence (Q04759 whole entry): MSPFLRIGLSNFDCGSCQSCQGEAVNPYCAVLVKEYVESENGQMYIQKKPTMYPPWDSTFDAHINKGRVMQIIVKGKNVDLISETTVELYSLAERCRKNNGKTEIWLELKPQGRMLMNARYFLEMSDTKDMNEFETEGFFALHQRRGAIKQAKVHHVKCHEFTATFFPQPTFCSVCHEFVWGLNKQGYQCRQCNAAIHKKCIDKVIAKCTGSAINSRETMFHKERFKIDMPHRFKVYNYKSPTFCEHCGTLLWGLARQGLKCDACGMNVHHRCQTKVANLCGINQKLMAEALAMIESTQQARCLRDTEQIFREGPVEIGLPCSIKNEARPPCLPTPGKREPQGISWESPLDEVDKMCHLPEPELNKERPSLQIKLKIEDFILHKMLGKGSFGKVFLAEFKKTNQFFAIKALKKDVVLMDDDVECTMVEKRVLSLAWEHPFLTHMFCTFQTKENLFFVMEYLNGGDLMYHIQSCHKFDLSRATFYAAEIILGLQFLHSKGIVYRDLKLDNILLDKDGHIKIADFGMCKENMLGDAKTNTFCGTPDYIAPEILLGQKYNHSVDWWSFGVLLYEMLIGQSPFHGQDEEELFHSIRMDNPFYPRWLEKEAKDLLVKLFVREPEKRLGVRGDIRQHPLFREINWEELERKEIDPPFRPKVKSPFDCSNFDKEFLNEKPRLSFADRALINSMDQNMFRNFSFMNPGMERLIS

Structure (SMILES) | IC50 [nM]
Cc1c(Nc2c(C#N)cnc3sc(-c4cccc(OC[C@H](O)CO)c4)cc23)ccc2[nH]ccc12 [Compound 484, 2-(3-{[(2R)-2,3-Dihydroxypropyl]-oxy}phenyl)-4-[(4-methyl-1H-indol-5-yl)amino]thieno[2,3-b]pyridine-5-carbonitrile] | 17
Cc1c(Nc2c(C#N)cnc3sc(-c4cccc(OC[C@@H](O)CO)c4)cc23)ccc2[nH]ccc12 [Compound 485, 2-(3-{[(2S)-2,3-Dihydroxypropyl]-oxy}phenyl)-4-[(4-methyl-1H-indol-5-yl)amino]thieno[2,3-b]pyridine-5-carbonitrile] | 40
Cc1c(Nc2c(C#N)cnc3sc(-c4ccc(OC[C@H](O)CO)cc4)cc23)ccc2[nH]ccc12 [Compound 486, 2-(4-{[(2R)-2,3-dihydroxypropyl]-oxy}phenyl)-4-[(4-methyl-1H-indol-5-yl)amino]thieno[2,3-b]pyridine-5-carbonitrile] | 70
Cc1c(Nc2c(C#N)cnc3sc(-c4ccc(OC[C@@H](O)CO)cc4)cc23)ccc2[nH]ccc12 [Compound 487, 2-(4-{[(2S)-2,3-dihydroxypropyl]-oxy}phenyl)-4-[(4-methyl-1H-indol-5-yl)amino]thieno[2,3-b]pyridine-5-carbonitrile] | 41
Cc1c(Nc2c(C#N)cnc3sc(-c4ccc(OC[C@H](C)O)cc4)cc23)ccc2[nH]ccc12 [Compound 488, 2-(4-{[(2S)-2-hydroxypropyl]-oxy}phenyl)-4-[(4-methyl-1H-indol-5-yl)amino]thieno[2,3-b]pyridine-5-carbonitrile] | 200
Cc1c(Nc2c(C#N)cnc3sc(-c4ccc(OC[C@@H](C)O)cc4)cc23)ccc2[nH]ccc12 [Compound 489, 2-(4-{[(2R)-2-hydroxypropyl]-oxy}phenyl)-4-[(4-methyl-1H-indol-5-yl)amino]thieno[2,3-b]pyridine-5-carbonitrile] | 175
Cc1c(Nc2c(C#N)cnc3sc(-c4ccccc4OC[C@@H](C)O)cc23)ccc2[nH]ccc12 [Compound 490, 2-(2-{[(2R)-2-hydroxypropyl]-oxy}phenyl)-4-[(4-methyl-1H-indol-5-yl)amino]thieno[2,3-b]pyridine-5-carbonitrile] | 105

Next, values leading:

IC50 [nM] | Structure (SMILES)
177 | Cc1c(Nc2c(C#N)cnc3sc(-c4ccccc4OC[C@H](C)O)cc23)ccc2[nH]ccc12 [Compound 491, 2-(2-{[(2S)-2-hydroxypropyl]-oxy}phenyl)-4-[(4-methyl-1H-indol-5-yl)amino]thieno[2,3-b]pyridine-5-carbonitrile]
50 | Cc1c(Nc2c(C#N)cnc3sc(-c4ccccc4OC[C@@H](O)CO)cc23)ccc2[nH]ccc12 [Compound 492, 2-(2-{[(2S)-2,3-dihydroxypropyl]-oxy}phenyl)-4-[(4-methyl-1H-indol-5-yl)amino]thieno[2,3-b]pyridine-5-carbonitrile]
45 | Cc1c(Nc2c(C#N)cnc3sc(-c4ccccc4OC[C@H](O)CO)cc23)ccc2[nH]ccc12 [Compound 493, 2-(2-{[(2R)-2,3-dihydroxypropyl]-oxy}phenyl)-4-[(4-methyl-1H-indol-5-yl)amino]thieno[2,3-b]pyridine-5-carbonitrile]
3 | CN(C)Cc1cccc(-c2cc3c(Nc4cnc5[nH]ccc5c4Cl)c(C#N)cnc3s2)c1 [Compound 498, 4-(4-chloro-1H-pyrrolo[2,3-b]pyridin-5-ylamino)-2-(3-((dimethylamino)methyl)phenyl)thieno[2,3-b]pyridine-5-carbonitrile]
1320 | N#Cc1c[n+]([O-])c2sccc2c1Nc1ccc2[nH]ccc2c1 [Compound 499, 4-(1H-indol-5-ylamino)thieno[2,3-b]pyridine-5-carbonitrile-7-oxide]
1100 | CCOC(=O)c1cc2c(Nc3ccc4[nH]ccc4c3)c(C#N)cnc2s1 [Compound 502, ethyl 5-cyano-4-(1H-indol-5-ylamino)thieno[2,3-b]pyridine-2-carboxylate]
11 | Cc1c(Nc2c(C#N)cnc3scc(C(C)C)c23)ccc2[nH]ccc12 [Compound 503, 3-isopropyl-4-[(4-methyl-1H-indol-5-yl)amino]thieno[2,3-b]pyridine-5-carbonitrile]
